Reference: patent US20260242359A1, “IRHOM2 INHIBITORS AND USES THEREOF” (NEW YORK SOCIETY FOR THE RELIEF OF THE RUPTURED AND …, priority 2023, published 2026)
Where two headings read alike, the source gives them in different places.

Tested on: LPS-induced release of endogenous TNFα from human THP-1 macrophage cells
Test: Example 12: ELISA-based TNFα release assay, LPS-induced, THP-1 macrophage cells
Format: cell-based
Conditions: for inhibition at 10 µM: Homo sapiens, THP-1, 2 h, read-out: inhibition of LPS-induced release of TNFα from THP-1 cells
Description: In the following study, ELISA-based TNFα release assay was performed to verify the inhibitory effects of Compounds 1, 2, 3, 4, 5, and 7 on LPS-induced release of endogenous TNFα from human THP-1 macrophage cells. The ELISA-based TNFα release assay that was used in this example is described below.
In brief, on day 1, Nunc black MaxiSorp® 96-well plates (Thermo Fisher Scientific, USA) were coated overnight with 100 μl per well of mouse anti-human TNFα capture antibody (provided as part of the DuoSet ELISA kit) at 4 μg/ml TBS at 4° C. On day 2, the capture antibody solution was removed and MaxiSorp® plates were blocked with 300 μl per well of TBS, 1% BSA at room temperature for 3 hours. Meanwhile, 20,000 THP-1 (American Type Culture Collection, USA) cells in 80 μl of normal growth medium were seeded in each well of Greiner CELLSTAR V-bottom 96-well plates (Thermo Fisher Scientific, USA) and pre-incubated with 20 μl per well of standard growth medium supplemented with Batimastat (BB94, Abcam, UK) at 50 μM as positive control (for a final concentration of 10 μM in the resulting 100 μl sample volume), compounds of the invention at 50 μM (for a final concentration of 10 μM in the resulting 100 μl sample volume) and in case of Buffer stimulated and unstimulated controls with DMSO (Carl Roth, Germany) at 50 μM (for a final concentration of 10 μM in the resulting 100 μl sample volume) at 37° C., 5% CO2 for 30 minutes. Subsequently, cells (except those for unstimulated controls) were stimulated with 20 μl per well of LPS (Sigma-Aldrich, USA) at 300 ng/ml growth medium for a final concentration of 50 ng/ml at 37° C., 5% CO2 for 2 hours. Afterwards, the 96-well plates were centrifuged to pellet cells. In parallel, blocking buffer was removed from the MaxiSorp® plates and plates were washed 4 times with 350 μl per well of TBS-T (Carl Roth, Germany) on a 96-head plate washer (Tecan Group, Switzerland). To avoid drying-up, 30 μl of TBS were added to each well of the MaxiSorp® plates immediately, followed by the transfer of 70 μl of cell-free supernatant per sample. Additionally, 100 μl of recombinant human TNFα protein (provided as part of the DuoSet ELISA kit) diluted in TBS at defined concentrations were added to the plate as standard references. Thereafter, 100 μl per well of biotinylated goat anti-human TNFα detection antibody (provided as part of the DuoSet ELISA kit) at 50 ng/ml TBS were added and, protected from direct light, plates were incubated at room temperature for 2 hours. After 4 times washing with 350 μl per well of TBS-T (Carl Roth, Germany) on a 96-head plate washer (Tecan Group, Switzerland) and careful removal of all buffer traces after the fourth cycle, 100 μl of streptavidin-AP (R&D Systems, USA) diluted 1:10,000 in TBS were added to each well and, again protected from direct light, plates were incubated at room temperature for 30 minutes. Following another round of 4 times washing with 350 μl per well of TBS-T (Carl Roth, Germany) on a 96-head plate washer (Tecan Group, Switzerland) and careful removal of all buffer traces after the fourth cycle, 100 μl of AttoPhos substrate solution (Promega, USA) was added for incubation in the dark at room temperature for 1 hour. Using an infinite M1000 PRO (Tecan Group, Switzerland) microplate reader, the fluorescence of each well was collected at an excitation wavelength of 435 nm and an emission wavelength of 555 nm.
The delta between Buffer stimulated and Buffer unstimulated was defined 100% inhibition.

[1] = 10 μM final concentration, LPS 50 ng/ml, 2 hours, delta Buffer stimulated vs unstimulated = 100% inhibition

Compound `CCOC(=O)c1ccc(Nc2nc3nonc3n3nnnc23)cc1` [Compound 2] has an inhibition at 10 µM [1] of 94.6%.

For `Cc1c(C(=O)NCc2cccs2)sc(=O)n1Cc1ccccc1` [Compound 4], the inhibition at 10 µM [1] was 58.2%.

`O=C(c1c(Cl)cccc1Cl)N1CCC(Cc2ccc(F)cc2)CC1` [Compound 3] showed an inhibition at 10 µM [1] of 93.1%.

Compound `Cc1c(C(=O)NCc2cccs2)sc(=O)n1Cc1ccccc1F` [Compound 5] has an inhibition at 10 µM [1] of 66.1%.

With `CNC(=O)[C@H](Cc1ccccc1)NC(=O)[C@H](CC(C)C)[C@H](CSc1cccs1)C(=O)NO` [Batimastat, reference compound] the “inhibition of LPS-induced release of TNFα from THP-1 cells” value [1] was 94.9% and the inhibition at 10 µM [1] was 87.4%.

`CCC(=O)NCCc1c(/C=C2/C(=O)NC(=O)N(c3ccc(C)cc3C)C2=O)[nH]c2ccccc12` [Compound 1] gave an inhibition at 10 µM of 100%.

`Cc1c(C(=O)NCc2ccco2)sc(=O)n1Cc1ccccc1F` [Compound 7] showed an inhibition at 10 µM [1] of 85.8%.
